Data set [1] addresses T1, Sphingosine 1-phosphate receptor 3 (Homo sapiens, UniProt Q99500). The data set can be described thus: Agonist activity at S1P3 (unknown origin).
The target in data set [2] is T1, Sphingosine 1-phosphate receptor 3. Kind of data set: Agonist activity at S1P3 (unknown origin) relative to control.
A short description of data set [3]: Apparent permeability across apical to basolateral side in pig LLC-PK1 cells. The format is ADME, cell-based, Sus scrofa.
Data set [4] has as its target Sphingosine 1-phosphate receptor 1 (Homo sapiens) (UniProt P21453). Kind of data set: Agonist activity at S1P1 (unknown origin) relative to control. The following applies: filed as agonist.

Structures are written as SMILES. The source made the active and inactive calls. The calls are words filed in the database; no cut-off is given here.

Chain of Sphingosine 1-phosphate receptor 1 (Homo sapiens) (P21453 whole entry): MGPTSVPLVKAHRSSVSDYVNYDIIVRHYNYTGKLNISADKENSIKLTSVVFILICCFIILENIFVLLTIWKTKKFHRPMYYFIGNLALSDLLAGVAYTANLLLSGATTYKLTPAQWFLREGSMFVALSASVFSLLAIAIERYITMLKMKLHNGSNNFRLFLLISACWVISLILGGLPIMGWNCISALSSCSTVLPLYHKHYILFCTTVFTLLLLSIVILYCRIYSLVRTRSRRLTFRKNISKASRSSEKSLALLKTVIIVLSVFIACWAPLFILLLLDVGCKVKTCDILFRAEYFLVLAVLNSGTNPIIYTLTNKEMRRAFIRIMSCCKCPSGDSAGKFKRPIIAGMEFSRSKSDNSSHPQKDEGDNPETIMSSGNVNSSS
T1 sequence (Q99500 whole entry): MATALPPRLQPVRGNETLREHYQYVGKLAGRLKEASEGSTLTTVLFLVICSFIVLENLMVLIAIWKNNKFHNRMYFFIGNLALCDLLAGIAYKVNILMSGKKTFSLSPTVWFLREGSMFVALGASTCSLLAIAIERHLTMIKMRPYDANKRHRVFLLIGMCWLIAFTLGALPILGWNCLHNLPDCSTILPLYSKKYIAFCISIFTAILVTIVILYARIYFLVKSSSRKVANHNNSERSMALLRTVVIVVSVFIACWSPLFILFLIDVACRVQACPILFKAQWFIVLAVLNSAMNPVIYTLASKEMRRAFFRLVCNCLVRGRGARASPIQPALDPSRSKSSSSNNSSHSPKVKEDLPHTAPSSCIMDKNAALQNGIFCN

A word on the Emax: it is the size of the effect at its maximum, as opposed to the concentration needed. In general, Papp A→B refers to how fast a substance crosses the layer from the apical side. With `Cn1cc(C(=O)Nc2ccc(-c3ccccc3)c(C(F)(F)F)n2)c(=O)c2cnccc21`, in data set [1], the EC50 result is “Not Active”. For the same compound, in data set [2], the Emax result was “inactive”. Also, the apparent permeability from apical to basolateral (Papp A→B) in data set [3] is 6.7 ×10⁻⁶ cm/s. Besides, in data set [4], the Emax stood at 120%.
On to `Cn1nc(C(=O)Nc2ccc(-c3ccccc3)c(C(F)(F)F)c2)c(=O)c2ccccc21`, for which the EC50 entry in data set [1] was “Not Active”. Besides, the Emax entry in data set [2] was “inactive”. Moreover, the Papp A→B in data set [3] was 2.3 ×10⁻⁶ cm/s. Besides, the Emax in data set [4] amounted to 130%.
In the case of `Cn1cc(C(=O)Nc2ccc(-c3ccccc3)c(C(F)(F)F)c2)c(=O)c2ncccc21`, the EC50 entry in data set [1] was “Not Active”. Moreover, the Emax result in data set [2] was “inactive”. Also, the Papp A→B in data set [3] came to 16 ×10⁻⁶ cm/s. Besides, in data set [4], the Emax turned out to be 86%.
In the case of `Cn1cc(C(=O)Nc2cc(C(F)(F)F)c(-c3ccccc3)cn2)c(=O)c2ccccc21`, the EC50 result in data set [1] is “Not Active”. Besides, the Emax result in data set [2] is “inactive”. For the same compound, the Papp A→B in data set [3] was less than 1 ×10⁻⁶ cm/s. The same compound returned an Emax in data set [4] of 59%.
Taken in the same sequence, the figures for `Cn1cc(C(=O)Nc2ccc(-c3ccccc3)c(C(F)(F)F)c2)c(=O)c2ccncc21` were “Not Active”, “inactive”, 3.4 ×10⁻⁶ cm/s and 120%.
`Cn1cc(C(=O)Nc2ccc(-c3cccnc3)c(C(F)(F)F)c2)c(=O)c2ccccc21`: the EC50 result in data set [1] was “Not Active”. Besides, the Emax result in data set [2] was “inactive”. The Papp A→B in data set [3] is 18 ×10⁻⁶ cm/s. The same compound showed a maximal effect (Emax) in data set [4] of 110%.
Take `Cn1cc(C(=O)Nc2ccc(-c3ccncc3)c(C(F)(F)F)c2)c(=O)c2ccccc21`: the EC50 result in data set [1] is recorded as “Not Active”. For the same compound, the Emax result in data set [2] is “inactive”. Moreover, in data set [3], the apparent permeability from apical to basolateral (Papp A→B) is 15 ×10⁻⁶ cm/s. In addition, the Emax in data set [4] turned out to be 110%.
For `Cn1cc(C(=O)Nc2ccc(-c3ccccc3)c(C(F)(F)F)n2)c(=O)c2ccccc21` the same measures were “Not Active”, “inactive”, less than 1 ×10⁻⁶ cm/s and 120%.
Consider `Cn1cc(C(=O)Nc2ccc(-c3ccccc3)c(C(F)(F)F)c2)c(=O)c2ccccc21`, for which the Emax in data set [2] (filed as agonist) was 92%; in data set [4], 110%. Further, the Papp A→B in data set [3] was found to be 1.2 ×10⁻⁶ cm/s.
For the compound `Cn1cc(C(=O)Nc2ccc(-c3ccccc3)c(C(F)(F)F)c2)c(=O)c2cnccc21`, the EC50 result in data set [1] is “Not Active”. Further, the Emax entry in data set [2] was “inactive”. For the same compound, the Papp A→B in data set [3] is 5.7 ×10⁻⁶ cm/s. The Emax in data set [4] came to 100%.
As for `Cn1cc(C(=O)Nc2cnc(-c3ccccc3)c(C(F)(F)F)c2)c(=O)c2ccccc21`, in data set [1], the EC50 entry is reported as “Not Active”. In addition, the Emax entry in data set [2] was “inactive”. Besides, the Papp A→B in data set [3] turned out to be 11 ×10⁻⁶ cm/s. For the same compound, in data set [4], the Emax stood at 170%.
For the compound `Cn1cc(C(=O)Nc2ccc(-c3ccccn3)c(C(F)(F)F)c2)c(=O)c2ccccc21`, in data set [1], the EC50 result is listed as “Not Active”. For the same compound, the Emax entry in data set [2] was “inactive”. Moreover, the Papp A→B in data set [3] came out at 11 ×10⁻⁶ cm/s. Further, the Emax in data set [4] stood at 110%.
`Cn1cc(C(=O)Nc2ccc(-c3ccccc3)c(C(F)(F)F)c2)c(=O)c2cccnc21`: in data set [1], the EC50 result is reported as “Not Active”. Moreover, the Emax result in data set [2] is “inactive”. Also, in data set [3], the Papp A→B amounted to 2.2 ×10⁻⁶ cm/s. Besides, in data set [4], the Emax is 100%.

(Values after ChEMBL document CHEMBL4725229, “Positional Analogue Scanning: An Effective Strategy for Multiparameter Optimization in Drug Design” (J Med Chem, 2020).)
